Laboratory results reported in patent US8067600B2, “Histone deacetylase inhibitors and methods of use thereof” (Georgetown University, priority 2003, dated 2011).
Read-outs that look alike come from different tables or passages of the source.

What was measured:
[1] = Cytotoxicity in SQ-20B cells (colony formation); settings: human, SQ-20B squamous carcinoma cells
Procedure: (§3) For each concentration indicated, individual T25 flasks were seeded with the following number of SQ-20B cells: for no drug, 10 μM and 50 μM drug concentrations, separate T25 flasks were each seeded with 100 cells; for 100 μM and 300 μM drug concentrations, separate T25 flasks were each seeded with 200 cells each; and for 500 μM and 1 mM drug concentrations, separate T25 flasks were each seeded with 300 cells each. A Levy Hemacytometer (Hausser Scientific) was used to count the cells in stock suspension. Serial dilutions of stock suspension were performed to obtain the proper concentration for cell seeding. To conduct the cytotoxicity study the SQ20B cells were first seeded under the appropriate treatment specifications and allowed to settle for 24 hr in a tissue culture incubator set at 37° C. and 5% CO2. Cells were treated with their corresponding drugs for 24 hr and then washed with three rinses of PBS (10 mL per rinse) and provided with new media. The cells were then further incubated for colony formation and the colonies were stained using a staining solution consisting of: 5 g Crystal Violet, 700 mL methanol and 300 mL dH2O. The flasks were then destained with three rinses in cold water. After the third rinse the stained colonies were counted and the corresponding IC50 for each drug was calculated.

HDAC [2] = assay: HDAC activity inhibition assay, HeLa nuclear extracts, Fluor de Lys substrate; type: biochemical; settings: HeLa nuclear extract, 37° C., 15 min, read-out: 50% HDAC activity inhibition
Procedure: For each test sample the corresponding assay reaction was performed in triplicate. […] For the selected Compounds of the Invention, samples at the following concentrations were prepared and tested: 1 μM, 5 μM, 10 μM, 100 μM and 1 mM.

SQ-20B cells [3] = assay: Radiation clonogenic survival assay (radiation sensitization); type: cell-based, human; design: α / β: unit not given here; settings: drug at IC50 concentration for 24 h, then graded gamma radiation; for α / β: linear quadratic model; for Do in SQ-20B Cells (Gy): single hit multi-target model, Do without sensitizer 2.4 Gy
Procedure: To test the ability of the Compounds of the Invention to sensitize cells to radiation, we used radiation resistant squamous carcinoma cell line, SQ-20B, for initial radiosensitization experiments. SQ-20B is extremely resistant to ionizing radiation (Do=2.4 Gy in the absence of radiation sensitizers). Briefly, logarithmically growing SQ-20B cells were treated with a drug compound at the IC50 concentration (determined using the clonogenic survival assay illustrated in Example 21) for 24 h and then exposed to graded dose of gamma radiation. Clonogenic survivals were determined and fit to the single hit multi-target and the linear quadratic models.
The shape of radiation survival curves are determined by using either the single-hit multitarget model or the linear-quadratic model. The multitarget model is used to describe the radiation sensitivity of cells defined by the terminal slope of the radiation survival curve, which is referred to as Do. The steeper the slope, the smaller is the value of Do and the more radiation sensitive is the cellular response. Alternatively, a less steep slope results in a larger Do and a more resistant radiation response. The linear-quadratic model is also used to describe the radiation sensitivity defined by two components to cell killing by radiation: one is proportional to dose (αD) and the other is proportional to the square of the dose (βD^2). Thus, the dose at which the linear and quadratic components are equal is the ratio α/β.
Shown in Table 4 are the results of selected compounds of the invention in the radiation clonigenic survival assay.

HDAC [4] = assay: In vitro HDAC inhibitory activity using fluor-Lys as the substrate (BIOMOL); type: biochemical; settings: for IC50: read-out: 50% HDAC Activity Inhibition
Procedure: The in vitro HDAC inhibitory activity of these compounds was determined by using fluor-Lys as the substrate (BIOMOL).

[5] = system: squamous cancer cells (SQ-20B); assay: Cytotoxicity following 24 h exposure, SQ-20B (FIG. 2); type: cell-based, human; settings: squamous carcinoma cells (SQ-20B)
Procedure: (§1) FIG. 2 depicts graphically the cytotoxicities of various compounds of the invention following 24 h exposure of human breast cancer cells (MCF-7) and squamous cancer cells (SQ-20B).
(§2) To test the biological effects of the compounds of this and the previous Example, cytotoxicities were determined following 24 h exposure of human breast cancer cells (MCF-7) and squamous cancer cells (SQ-20B) to three compounds (4g, 4c and 10a). FIG. 2.

[6] = system: human breast cancer cells (MCF-7); assay: Cytotoxicity following 24 h exposure, MCF-7 (FIG. 2); type: cell-based; settings: breast carcinoma cells (MCF-7)
Procedure: as §1, §2

SQ-20B cells [7] = system: SQ-20B cells
Procedure: as §3

SQ-20B cells [8] = assay: Cytotoxicity in SQ-20B cells (colony formation); settings: read-out: Cytotoxicity in SQ-20B cells (IC50); 24 hr drug treatment, colony formation
Procedure: as §3

Question: With `O=C(CCCCCNC(=O)NC12CC3CC(CC(C3)C1)C2)NO` [Compound 8, 6-(3-Adamantan-1-yl-ureido)-hexanoic Acid Hydroxyamide] as the compound, how does the IC50 at 24 h [1] read?
Answer: 50000 nM

Question: What about the IC50 (HDAC [2]) of the same compound?
Answer: 800 nM

Question: What about the α (SQ-20B cells [3]) of the same compound?
Answer: 0.2378

Question: What about the β (SQ-20B cells [3]) of the same compound?
Answer: 0.02282

Question: What about the “Do in SQ-20B Cells (Gy)” value (SQ-20B cells [3]) of the same compound?
Answer: 1.78 Gy

Question: With `O=C(CS)NCCCCCNC(=O)c1ccc(-c2ccccc2)cc1` [Compound 4g, Biphenyl-4-carboxylic acid [5-(2-mercapto-acetylamino)-pentyl]-amide] as the compound, how does the IC50 (HDAC [4]; fluor-Lys substrate (BIOMOL)) read?
Answer: 550 nM

Question: For `CN(C)c1ccc(C(=O)NCCCCCNC(=O)CS)cc1` [Compound 4c, 4-Dimethylamino-N-[5-(2-mercapto-acetylamino)-pentyl]-benzamide], which “cytotoxicities (in words)” value [5] is on record?
Answer: dose-dependent cytotoxicities

Question: And the “cytotoxicities (in words)” value [6]?
Answer: dose-dependent cytotoxicities

Question: And the IC50 (HDAC [4])?
Answer: 200 nM

Question: Which results are given for `CN(C)c1ccc(CNC(=O)NCCCCCCCC(=O)NO)cc1` [Compound 6, 8-[3-(4-dimethylamino-benzyl)-ureido]-octanoic Acid Hydroxyamide]?
Answer: IC50 at 24 h [1]: 50000 nM; IC50 (HDAC [2]): 700 nM; α (SQ-20B cells [3]): 0.2846; β (SQ-20B cells [3]): 0.01761; Do in SQ-20B Cells (Gy) (SQ-20B cells [3]): 1.94 Gy

Question: With “4-[3-(4-Dimethylamino-benzyl)-ureido]-N-hydroxy-butyramide [Compound 2]” as the compound, how does the IC50 (SQ-20B cells [7]) read?
Answer: 50000 nM

Question: And the IC50 (HDAC [2])?
Answer: 800 nM

Question: What about the α (SQ-20B cells [3]) of the same compound?
Answer: 0.1681

Question: And the β (SQ-20B cells [3])?
Answer: 0.03301

Question: And the “Do in SQ-20B Cells (Gy)” value (SQ-20B cells [3])?
Answer: 1.62 Gy

Question: Which IC50 (HDAC [4]; fluor-Lys substrate (BIOMOL)) does the source give for `O=C(CS)NCCCCCNC(=O)c1ccccc1` [Compound 4h, N-[5-(2-Mercapto-acetylamino)-pentyl]-benzamide] here?
Answer: 1100 nM

Question: Which IC50 (HDAC [4]; fluor-Lys substrate (BIOMOL)) does the source give for `O=C(CS)NCCCCCCNC(=O)CS` [Compound 4j, 2-Mercapto-N-[6-(2-mercapto-acetylamino)-hexyl]-acetamide] here?
Answer: 10000 nM

Question: With `CN(C)c1ccc(NC(=O)NCCCCCCC(=O)NO)cc1` [Compound 7, 7-[3-(4-dimethylamino-phenyl)-ureido]-heptanoic Acid Hydroxyamide] as the compound, how does the IC50 at 24 h [1] read?
Answer: 10000 nM

Question: What about the IC50 (HDAC [2]) of the same compound?
Answer: 700 nM

Question: What about the α (SQ-20B cells [3]) of the same compound?
Answer: 0.1391

Question: And the β (SQ-20B cells [3])?
Answer: 0.03335

Question: What about the “Do in SQ-20B Cells (Gy)” value (SQ-20B cells [3]) of the same compound?
Answer: 1.57 Gy

Question: Which IC50 (HDAC [2]) does the source give for `O=C(CS)NCCCCCNC(=O)c1ccccc1` [Compound 25] here?
Answer: 1000 nM

Question: Which IC50 (HDAC [2]) does the source give for `CN(C)c1ccc(C(=O)NCCCCCNC(=O)CS)cc1` [Compound 24] here?
Answer: 800 nM

Question: For `O=C(CS)NCCCCCNC(=O)c1ccc(-c2ccccc2)cc1` [Compound 23], which IC50 (HDAC [2]) is on record?
Answer: 750 nM

Question: With `O=C(CS)NCCCNC(=O)c1ccc(-c2ccccc2)cc1` [Compound 4e, Biphenyl-4-carboxylic acid [3-(2-mercapto-acetylamino)-propyl]-amide] as the compound, how does the IC50 (HDAC [4]; fluor-Lys substrate (BIOMOL)) read?
Answer: 800 nM

Question: With `O=C(CS)NCCCCNC(=O)c1ccc(-c2ccccc2)cc1` [Compound 4f, Biphenyl-4-carboxylic acid [4-(2-mercapto-acetylamino)-butyl]-amide] as the compound, how does the IC50 (HDAC [4]; fluor-Lys substrate (BIOMOL)) read?
Answer: 13000 nM

Question: Which IC50 (HDAC [4]; fluor-Lys substrate (BIOMOL)) does the source give for `O=C(CS)NCCCCCNC(=O)c1cnc2ccccc2c1` [Compound 4l, Quinoline-3-carboxylic acid [5-(2-mercapto-acetylamino)-pentyl]-amide] here?
Answer: 250 nM

Question: Which IC50 (HDAC [2]) does the source give for `O=C(CS)NCCCCCCNC(=O)c1ccccc1` [Compound 21] here?
Answer: 1600 nM

Question: What does the source list for `CN(C)c1ccc(C(=O)NCc2ccc(CNC(=O)CS)cc2)cc1` [Compound 4k, 4-Dimethylamino-N-{4-[(2-mercapto-acetylamino)-methyl]-benzyl}-benzamide]?
Answer: in vitro HDAC inhibitory activity (in words) (HDAC [4]; fluor-Lys substrate (BIOMOL)): comparable HDAC inhibitory activity; IC50 (HDAC [4]; fluor-Lys substrate (BIOMOL)): 200 nM

Question: For `CN(C)c1ccc(C(=O)NCCCCCCNC(=O)CS)cc1` [Compound 22], which IC50 (HDAC [2]) is on record?
Answer: 800 nM

Question: For `O=C(CS)NCCCCCCNC(=O)c1ccccc1` [Compound 4i, N-[6-(2-Mercapto-acetylamino)-hexyl]-benzamide], which IC50 (HDAC [4]; fluor-Lys substrate (BIOMOL)) is on record?
Answer: 900 nM

Question: Which α (SQ-20B cells [3]) does the source give for `O=C(CCCCCCC(=O)Nc1ccccc1)NO` [SAHA, suberoylanilide hydroxamic acid, reference compound] here?
Answer: 0.01197

Question: And the β (SQ-20B cells [3])?
Answer: 0.03152

Question: And the “Do in SQ-20B Cells (Gy)” value (SQ-20B cells [3])?
Answer: 1.88 Gy

Question: Which IC50 (SQ-20B cells [8]) does the source give for “5-[3-(4-dimethylamino-benzyl)-ureido]-pentanoic Acid Hydroxyamide [Compound 3]” here?
Answer: 25000 nM

Question: And the IC50 (HDAC [2])?
Answer: 800 nM

Question: And the α (SQ-20B cells [3])?
Answer: 0.2420

Question: What about the β (SQ-20B cells [3]) of the same compound?
Answer: 0.02486

Question: What about the “Do in SQ-20B Cells (Gy)” value (SQ-20B cells [3]) of the same compound?
Answer: 1.72 Gy

Question: For `O=C(CS)NCCCCCNC(=O)Nc1ccccc1` [Compound 9, 2-Mercapto-N-[5-(3-phenyl-ureido)-pentyl]-acetamide], which IC50 (HDAC [2]) is on record?
Answer: 900 nM

Question: For `CN(C)c1ccc(C(=O)NCCCNC(=O)CS)cc1` [Compound 4a, 4-Dimethylamino-N-[3-(2-mercapto-acetylamino)-propyl]-benzamide], which IC50 (HDAC [4]; fluor-Lys substrate (BIOMOL)) is on record?
Answer: 800 nM

Question: For `O=C(CS)NCCCCCCNC(=O)Nc1ccccc1` [Compound 10, 2-Mercapto-N-[6-(3-phenyl-ureido)-hexyl]-acetamide], which IC50 at 24 h [1] is on record?
Answer: 50000 nM

Question: What about the IC50 (HDAC [2]) of the same compound?
Answer: 900 nM

Question: What about the α (SQ-20B cells [3]) of the same compound?
Answer: 0.1135

Question: What about the β (SQ-20B cells [3]) of the same compound?
Answer: 0.01558

Question: What about the “Do in SQ-20B Cells (Gy)” value (SQ-20B cells [3]) of the same compound?
Answer: 2.54 Gy

Question: Which IC50 (HDAC [4]; fluor-Lys substrate (BIOMOL)) does the source give for `O=C(CS)NCCCCCNC(=O)c1cccc2cccnc12` [Compound 4m, Quinoline-8-carboxylic acid [5-(2-mercapto-acetylamino)-pentyl]-amide] here?
Answer: 400 nM

Question: With `CN(C)c1ccc(C(=O)NCCCCNC(=O)CS)cc1` [Compound 4b, 4-Dimethylamino-N-[4-(2-mercapto-acetylamino)-butyl]-benzamide] as the compound, how does the IC50 (HDAC [4]; fluor-Lys substrate (BIOMOL)) read?
Answer: 4700 nM

Question: For `CC(/C=C/C(=O)NO)=C\[C@@H](C)C(=O)c1ccc(N(C)C)cc1` [TSA, 7-(4-(dimethylamino)phenyl)-n-hydroxy-4,6-dimethyl-7-oxo-2,4-heptadienamide, reference compound], which IC50 at 24 h [1] is on record?
Answer: 200 nM

Question: And the α (SQ-20B cells [3])?
Answer: 0.1260

Question: What about the β (SQ-20B cells [3]) of the same compound?
Answer: 0.03059

Question: What about the “Do in SQ-20B Cells (Gy)” value (SQ-20B cells [3]) of the same compound?
Answer: 1.65 Gy

Question: With `O=C(CS)NCCCCCNC(=O)NCc1ccccc1` [Compound 11, N-[5-(3-benzyl-ureido)-pentyl]-2-mercapto-acetamide] as the compound, how does the IC50 (HDAC [2]) read?
Answer: 1600 nM

Question: Which IC50 (HDAC [4]; fluor-Lys substrate (BIOMOL)) does the source give for `CN(C)c1ccc(C(=O)NCCCCCCNC(=O)CS)cc1` [Compound 4d, 4-Dimethylamino-N-[6-(2-mercapto-acetylamino)-hexyl]-benzamide] here?
Answer: 450 nM

Question: Which results are given for `CN(C)c1ccc(CNC(=O)NCCCCCCC(=O)NO)cc1` [Compound 5, 7-[3-(4-dimethylamino-benzyl)-ureido]-heptanoic Acid Hydroyxamide]?
Answer: IC50 at 24 h [1]: 50000 nM; IC50 (HDAC [2]): 1000 nM; α (SQ-20B cells [3]): 0.1978; β (SQ-20B cells [3]): 0.02561; Do in SQ-20B Cells (Gy) (SQ-20B cells [3]): 1.78 Gy
